Experiments:
[1] = system: AIA Lewis rats; assay: Treatment study of the active compound in AIA Lewis rats; serum metabolite profile by GC/TOFMS and OPLS; assay type: in vivo; conditions: 1 mg, 3 mg or 10 mg active compound
From the text: This example illustrates the potency of the active compound and its therapeutically active acid addition salts for treatment of […].
AIA was induced in a total of 21 Lewis rats were included in the treatment study. Samples used consist of the following blood samples: • 22 samples from AIA Lewis rats (one of the rats was sampled twice) • 26 samples from treated AIA Lewis rats (five of the rats was sampled twice)
Different treatments were distributed in the AIA subjects as follows: • 5 subjects received 1 mg active compound • 5 subjects received 3 mg active compound • 6 subjects received 10 mg active compound • 5 subjects received 1 mg methotrexate Extraction of Metabolites from Serum
(§1) Extraction of metabolites from serum samples was essentially performed as the method described by A et al. (2005). 630 μl of MeOH:H2O (9:1 V:V) including internal standards was added to 70 μl of serum. The solution was vortex mixed for 10 s, kept on ice for 10 min, and then vigorously extracted at a frequency of 30 Hz for 3 min using a MM301 vibration Mill (Retsch GmbH & Co. KG, Haan, Germany. After […] on ice, the samples were centrifuged at 19 600 g for 10 min at 4° C. 200 μl of the supernatant was transferred to a GC vial, and 50 μl was transferred to a LC/MS vial and evaporated to dryness.
GC/TOFMS analysis and the Data processing of MS-data was carried out as in Example 1 above.

[2] = system: AIA DA rats; assay: Treatment of RA in an AIA rat model with an experimental substance; serum metabolite profile by GC/TOFMS and OPLS-DA; assay type: in vivo, Dark Agouti (DA) rats; conditions: treated vs untreated; for regulation of endogenous metabolite levels in treated animals (OPLS-DA loadings): FIG. 7B
From the text: Treatment of RA in an AIA Rat Model with an Experimental Substance (Arginine)
AIA was induced in three Dark Agouti (DA) rats and the rats were then given treatment with an experimental substance.
The rat model samples used consist of the following blood samples: • 3 samples from AIA DA rats • 4 samples (one of the rats was sampled twice) from AIA DA rats treated with the experimental substance. Extraction of Metabolites from Serum
as §1
Prior GC/MS analysis the samples were derivatised with 30 μL of methoxyamine hydrochloride (15 mg mL-1) in pyridine by shaking for 10 min at 5° C., then incubating them for 16 h at room temperature. The samples were then trimethylsilylated by adding 30 μL of […] (MSTFA) with 1% TMCS and incubating them for 1 h at room temperature. After silylation, 30 μL of heptane (containing 0.5 μg methyl stearate as internal standard) was added. 0.1 μl of derivatized sample was injected split less by an Agilent 7683 Series Autosampler (Agilent, Atlanta; GA, USA) into an Agilent 6980 GC equipped with a 10 m×0.18 mm ID, fused silica capillary column chemically bonded with 0.18 μm DB5-MS stationary phase (J&W Scientific, Folsom, Calif., USA). The injector temperature was set at 270° C. Helium was used as carrier gas at a constant flow rate of 1 ml/min through the column. For every analysis, the purge time was set to 60 s at a purge flow rate of 20 ml min-1 and an equilibration time of 1 min. […]

Row | melting point [°C] | SMILES | levels of the metabolites associated with AD, effect of treatment [1] | separation of untreated and treated AIA animals in the OPLS-DA scores scatter plot (patterns of endogenous metabolites) ([2]; FIG. 7A) | regulation of endogenous metabolite levels in treated animals (OPLS-DA loadings) [2] | regulation of endogenous metabolite levels in treated animals (OPLS-DA loadings) ([2]; listed as administered substance)
1 | 198 to 200 | COc1ccc(C=NNC(=N)N)c(Cl)c1OC [active compound, N-(2-chloro-3,4-dimethoxybenzylideneamino)guanidine] | significantly affected | – | – | –
2 | – | N=C(N)NCCC[C@H](N)C(=O)O [experimental substance, Arginine] | – | well separated | Almost all metabolites are up regulated | up regulation of many of the metabolites

— US20120108668A1, “METABOLIC PROFILES” (priority 2009, published 2012)
